Reference: US9994551B2, “Pyridazine derivatives as RORc modulators” (Genentech, Inc., priority 2015, dated 2018)

Target: T1, RORc ligand binding domain (Homo sapiens, UniProt P51449)
T1 construct: host or cells: E. coli
T1 sequence (P51449 269-508 limits assumed): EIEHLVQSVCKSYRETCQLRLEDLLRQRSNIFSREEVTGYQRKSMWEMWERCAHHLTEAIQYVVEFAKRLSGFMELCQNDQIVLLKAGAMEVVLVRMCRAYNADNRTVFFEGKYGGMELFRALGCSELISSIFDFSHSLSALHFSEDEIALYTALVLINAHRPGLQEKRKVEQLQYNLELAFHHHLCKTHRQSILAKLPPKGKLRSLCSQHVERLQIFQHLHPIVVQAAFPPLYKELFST
Test: In vitro RORc ligand binding assay (25-[3H]hydroxycholesterol displacement, filter binding)

Row | IC50 [nM] | Structure (SMILES)
1 | 140 | CC1(C)[C@H]2CC[C@]1([C@H]1CN(C(=O)c3ccc(Cl)nn3)CCO1)c1nnc(-c3c(F)cccc3F)cc12 [Compound 124, (6-chloropyridazin-3-yl)-[2-[5-(2,6-difluorophenyl)-11,11-dimethyl-3,4-diazatricyclo[6.2.1.02,7]undeca-2,4,6-trien-1-yl]morpholin-4-yl]methanone]
2 | 7.1 | CC1(C)[C@H]2CC[C@]1([C@H]1CCCN(C(=O)c3cccnn3)C1)c1nnc(-c3c(F)cccc3F)cc12 [Compound 168, [3-[5-(2,6-difluorophenyl)-11,11-dimethyl-3,4-diazatricyclo[6.2.1.02,7]undeca-2,4,6-trien-1-yl]-1-piperidyl]-pyridazin-3-yl-methanone]
3 | 2.8 | Cc1n[nH]c(N2CCC[C@H]([C@@]34CC[C@@H](c5cc(-c6c(F)cccc6F)nnc53)C4(C)C)C2)n1 [Compound 173, 5-(2,6-difluorophenyl)-11,11-dimethyl-1-[1-(3-methyl-1H-1,2,4-triazol-5-yl)-3-piperidyl]-3,4-diazatricyclo[6.2.1.02,7]undeca-2,4,6-triene]
4 | 215 | CC1(C)[C@H]2CC[C@]1([C@H]1CCC(=O)NC1)c1nnc(-c3c(F)cccc3F)cc12 [Compound 92, (R)-5-((5R,8R)-3-(2,6-difluorophenyl)-9,9-dimethyl-5,6,7,8-tetrahydro-5,8-methanocinnolin-8-yl)piperidin-2-one]
5 | 3.1 | CC(C)(C)OC(=O)N1CCNC[C@H]1[C@@]12CC[C@@H](c3cc(-c4c(F)cccc4F)nnc31)C2(C)C [Compound 115, tert-butyl 2-[5-(2,6-difluorophenyl)-11,11-dimethyl-3,4-diazatricyclo[6.2.1.02,7]undeca-2,4,6-trien-1-yl]piperazine-1-carboxylate]
6 | 200 | CCC[C@H](O[C@@]12CC[C@@H](c3cc(-c4c(F)cccc4F)nnc31)C2(C)C)C(N)=O [Compound 50, (S)-2-(((5S,8R)-3-(2,6-difluorophenyl)-9,9-dimethyl-5,6,7,8-tetrahydro-5,8-methanocinnolin-8-yl)oxy)pentanamide]
7 | 8.8 | CC1(C)[C@H]2CC[C@]1([C@@H]1CN(c3nc(CO)co3)CCO1)c1nnc(-c3c(F)cccc3F)cc12 [Compound 130, [2-[2-[5-(2,6-difluorophenyl)-11,11-dimethyl-3,4-diazatricyclo[6.2.1.02,7]undeca-2,4,6-trien-1-yl]morpholin-4-yl]oxazol-4-yl]methanol]
8 | 105 | CC[C@@H](O[C@@]12CC[C@@H](c3cc(-c4c(F)cccc4F)nnc31)C2(C)C)C(=O)NNC(C)=O [Compound 58, (R)-N′-acetyl-2-(((5S,8R)-3-(2,6-difluorophenyl)-9,9-dimethyl-5,6,7,8-tetrahydro-5,8-methanocinnolin-8-yl)oxy)butanehydrazide]
9 | 24 | CC1(C)[C@H]2CC[C@]1([C@H]1CCCN(c3cnccn3)C1)c1nnc(-c3c(F)cccc3F)cc12 [Compound 165, 5-(2,6-difluorophenyl)-11,11-dimethyl-1-(1-pyrazin-2-yl-3-piperidyl)-3,4-diazatricyclo[6.2.1.02,7]undeca-2,4,6-triene]
10 | 54.3 | CC[C@@H](O[C@@]12CC[C@@H](c3cc(-c4c(F)cccc4F)nnc31)C2(C)C)C(=O)N(C)C [Compound 36, (R)-2-(((5S,8R)-3-(2,6-difluorophenyl)-9,9-dimethyl-5,6,7,8-tetrahydro-5,8-methanocinnolin-8-yl)oxy)-N,N-dimethylbutanamide]
11 | 118 | CC1(C)[C@H]2CC[C@]1(OCC(N)=O)c1nnc(-c3c(F)cccc3F)cc12 [Compound 47, 2-(((5S,8R)-3-(2,6-difluorophenyl)-9,9-dimethyl-5,6,7,8-tetrahydro-5,8-methanocinnolin-8-yl)oxy)acetamide]
12 | 50.1 | CC[C@@H](O[C@@]12CC[C@@H](c3cc(-c4c(F)cccc4F)nnc31)C2(C)C)c1nc[nH]n1 [Compound 40, (5S,8R)-8-((R)-1-(1H-1,2,4-triazol-3-yl)propoxy)-3-(2,6-difluorophenyl)-9,9-dimethyl-5,6,7,8-tetrahydro-5,8-methanocinnoline]
